Data from patent publication US5430062A, “Stilbene derivatives as anticancer agents” (priority 1993, dated 1995).
Like-named read-outs stand apart in the source and are kept apart here.

Assays:
MOLT-4 leukemia = test: Cytotoxicity, MOLT-4; format: cell-based; conditions: Homo sapiens, read-out: Log10 GI50, MOLT-4 (converted)
Source text: (§1) A total of 55 cell lines from the leukemia, non-small cell lung cancer, small cell lung cancer, colon cancer, CNS cancer, melanoma, ovarian cancer, and renal cancer panels were examined.

SNB-75 CNS cancer = test: Cytotoxicity, SNB-75; format: cell-based; conditions: Homo sapiens, read-out: Log10 GI50, SNB-75 (converted)
Source text: as §1

A498 renal cancer = test: Cytotoxicity, A498; format: cell-based; conditions: Homo sapiens, read-out: Log10 GI50, A498 (converted)
Source text: as §1

ACHN renal cancer = test: Cytotoxicity, ACHN; format: cell-based
Source text: as §1

[1] = tested on: NCI-H460 non-small cell lung cancer; test: Cytotoxicity, NCI-H460; format: cell-based; conditions: Homo sapiens, read-out: Log10 GI50, NCI-H460 (converted)
Source text: as §1

SF-295 CNS cancer = test: Cytotoxicity, SF-295
[2] = tested on: A549/ATCC non-small cell lung cancer; test: Cytotoxicity, A549/ATCC; format: cell-based; conditions: Homo sapiens, read-out: Log10 GI50, A549/ATCC (converted)
Source text: as §1

tubulin = test: Inhibition of tubulin polymerization (turbidimetry); format: biochemical, bovine; conditions: Hydrochloride
OVCAR-3 ovarian cancer = test: Cytotoxicity, OVCAR-3; conditions: read-out: cytotoxicity GI50, OVCAR-3, 50% growth inhibition, average of two determinations, 8640 min, Hydrochloride
CAKI-1 renal cancer = test: Cytotoxicity, CAKI-1; conditions: read-out: cytotoxicity GI50, CAKI-1, 50% growth inhibition, average of two determinations, 8640 min, Hydrochloride
IGROVI ovarian cancer = test: Cytotoxicity, IGROVI; format: cell-based; conditions: read-out: Log10 GI50, IGROVI (converted)
Source text: as §1

SK-MEL-2 melanoma = test: Cytotoxicity, SK-MEL-2; format: cell-based; conditions: Homo sapiens, read-out: Log10 GI50, SK-MEL-2 (converted)
Source text: as §1

[3] = tested on: HOP-18 non-small cell lung cancer; test: Cytotoxicity, HOP-18; format: cell-based; conditions: Homo sapiens, read-out: Log10 GI50, HOP-18 (converted)
Source text: as §1

[4] = tested on: HOP-62 non-small cell lung cancer; test: Cytotoxicity, HOP-62; format: cell-based; conditions: Homo sapiens, read-out: Log10 GI50, HOP-62 (converted)
Source text: as §1

M14 melanoma = test: Cytotoxicity, M14; conditions: read-out: cytotoxicity GI50, M14, 50% growth inhibition, average of two determinations, 8640 min, Hydrochloride
RPMI-8226 leukemia = test: Cytotoxicity, RPMI-8226; format: cell-based; conditions: Homo sapiens, read-out: Log10 GI50, RPMI-8226 (converted)
Source text: as §1

786-0 renal cancer = test: Cytotoxicity, 786-0; format: cell-based; conditions: Homo sapiens, read-out: Log10 GI50, 786-0 (converted)
Source text: as §1

RXF-393 renal cancer = test: Cytotoxicity, RXF-393; format: cell-based; conditions: Homo sapiens, read-out: Log10 GI50, RXF-393 (converted)
Source text: as §1

SNB-19 CNS cancer = test: Cytotoxicity, SNB-19; format: cell-based; conditions: Homo sapiens, read-out: Log10 GI50, SNB-19 (converted)
Source text: as §1

SF-539 CNS cancer = test: Cytotoxicity, SF-539; format: cell-based; conditions: Homo sapiens, read-out: Log10 GI50, SF-539 (converted)
Source text: as §1

CCRF-CBM leukemia = test: Cytotoxicity, CCRF-CBM; format: cell-based; conditions: read-out: Log10 GI50, CCRF-CBM (converted)
Source text: as §1

TK-10 renal cancer = test: Cytotoxicity, TK-10; format: cell-based; conditions: Homo sapiens, read-out: Log10 GI50, TK-10 (converted)
Source text: as §1

Compound COc1cc(CNc2ccc(C)cc2)cc(OC)c1OC.Cl [110a, 4-Methyl-N-(3,4,5-trimethoxybenzyl)aniline Hydrochloride] has a GI50 (MOLT-4 leukemia) of 427 nM, a GI50 (SNB-75 CNS cancer) of 389 nM and a GI50 (A498 renal cancer) greater than 100000 nM. The GI50 (ACHN renal cancer; Homo sapiens, ACHN, read-out: Log10 GI50, ACHN (converted)) was less than 100 nM, the “Log10 GI50, ACHN” value (ACHN renal cancer; Hydrochloride) was -7.01 and the GI50 [1] was 214 nM. For the same compound, the “Log10 GI50, SF-295” value (SF-295 CNS cancer) was -6.49, the GI50 (SF-295 CNS cancer; read-out: cytotoxicity GI50, SF-295, 50% growth inhibition, average of two determinations, 8640 min, Hydrochloride, 8640 min) was 233 nM and the GI50 [2] was 513 nM. The IC50 (tubulin; Table X, different glutamate preparation (1M monosodium glutamate and GTP), read-out: inhibn of tubulin polymn IC50 (±SD)) was 3500 nM, the IC50 (tubulin; benzylanilines, Table X series, read-out: tubulin polymerization IC50) was 3500 nM and the GI50 (OVCAR-3 ovarian cancer) was 214 nM. The GI50 (CAKI-1 renal cancer) was 162 nM, the GI50 (IGROVI ovarian cancer) was 708 nM and the GI50 (SK-MEL-2 melanoma) was 132 nM. It also gave a GI50 [3] of 37200 nM, a GI50 [4] of 282 nM and a GI50 (M14 melanoma) of 292 nM. It also gave a GI50 (RPMI-8226 leukemia) of 437 nM, a GI50 (786-0 renal cancer) of 324 nM and a GI50 (RXF-393 renal cancer) of 112 nM. The GI50 (SNB-19 CNS cancer) was 295 nM, the GI50 (SF-539 CNS cancer) was 316 nM and the GI50 (CCRF-CBM leukemia) was 282 nM. For the same compound, the GI50 (TK-10 renal cancer) was greater than 100000 nM.
